The source of these data is US5733569A, “Galenic compositions comprising calcitonin and their use” (Novartis Corporation, priority 1982, dated 1998).

A short description of data set [1]: relative bio-availability study nasal administration/intra-muscular injection of salmon calcitonin in healthy volunteers. The format is in vivo. Particulars: for time serum levels remain above the detectability limit: detectability limit 26 pg/ml. As to the method: The study is conducted with 12 healthy volunteers, 6 male and 6 female, with a body weight of from 50 to 85 kg. Each subject receives 4 administrations of salmon calcitonin, one intra-muscularly and 3 nasally. Administration is effected at the following dosages:
B. Intra-muscular: 50 MRC units.
Nasal administration is effected using composition in accordance with example 1 and a spray-applicator delivering 55 MRC units per individual spray dosage. For the purposes of administration the subject is laid on the back with the head tilted backwards for 5 minutes. The nostrils are cleaned by blowing of the nose immediately prior to administration.
Intra-muscular administration is effected by injection of a single 1 ml dose of a composition similar to that of example 1, but omitting benzalkonium chloride and containing 50 MRC units into the glutaeus medius muscle.
Each subject receives the 4 administrations in randomized sequence, and at least 3 days are allowed between consecutive administrations. Each administration is effected in the morning after a light breakfast from which milk, butter and cheese is excluded. 100 ml water or orange juice is taken hourly following treatment to maintain urinary output. Further food is allowed not earlier than 4 hours after treatment.
Blood samples are taken immediately prior to administration (control), and at intervals of 5, 15, 30, 60, 90, 120, 180, 240, 360 and 480 minutes following administration. For the control a 20 ml sample is taken. All subsequent samples are 2 ml samples.
The concentration of salmon calcitonin in each serum sample is measured by radio-immuno-assay. Blood-pressure is controlled during the course of the trial and urine-samples tested for possible adverse reaction. Occurrence of side-effects, e.g. symptoms of nausea, is noted.
The AUC ("area under curve") for salmon calcitonin plasma concentration is calculated statistically, once employing all value, including those below the 26 pg/ml detectability limit, once with values below the detectability limit read as zero. Maximal plasma concentration and time at which this is reached are also determined. Relative bio-availability for nasal administration is determined from the relative dosage-standardized AUC (i.e. based on 50 MRC units) following nasal and intra-muscular administration.

The subject of data set [2] is Pen. steckii. The data set can be described thus: preservative activity against test fungus in calcitonin nasal composition. Particulars: chlorbutanol at 0.6% in calcitonin nasal pharmaceutical compositions. The text has this: Very many well-known preserving agents present themselves for possible use in calcitonin pharmaceutical compositions. However experiment has shown that not all are suitable for practical use in relation to a calcitonin nasal spray.

Data set [3] has as its system ciliary beating frequency of rat trachea. In words: ciliary beating frequency, microphoto-oscillographic method of L. Chevance et al. Particulars: at 0.6%, within 20 minutes. On the procedure: 70, […] (1970). These are just some of the disadvantageous effects that can be encountered.
Moreover the compositions are well tolerated as indicated in standard tests, e.g. in that less than 50% inhibition of ciliary beating frequency is observed up to 20 minutes after administration, according to the microphoto-oscillographic method of L. Chevance et al, Acta Otolaryng. 70, 26-28 (1970).

As to `CC(C)C[C@H](NC(=O)[C@H](CCCCN)NC(=O)CNC(=O)[C@H](CC(C)C)NC(=O)[C@@H](NC(=O)[C@@H]1CSSC[C@H](N)C(=O)N[C@@H](CO)C(=O)N[C@@H](CC(N)=O)C(=O)N[C@@H](CC(C)C)C(=O)N[C@@H](CO)C(=O)N[C@@H]([C@@H](C)O)C(=O)N1)C(C)C)C(=O)N[C@@H](CO)C(=O)N[C@@H](CCC(N)=O)C(=O)N[C@@H](CCC(=O)O)C(=O)N[C@@H](CC(C)C)C(=O)N[C@@H](Cc1c[nH]cn1)C(=O)N[C@@H](CCCCN)C(=O)N[C@@H](CC(C)C)C(=O)N[C@@H](CCC(N)=O)C(=O)N[C@H](C(=O)N[C@@H](Cc1ccc(O)cc1)C(=O)N1CCC[C@H]1C(=O)N[C@@H](CCCNC(=N)N)C(=O)N[C@H](C(=O)N[C@@H](CC(N)=O)C(=O)N[C@H](C(=O)NCC(=O)N[C@@H](CO)C(=O)NCC(=O)N[C@H](C(=O)N1CCC[C@H]1C(N)=O)[C@@H](C)O)[C@@H](C)O)[C@@H](C)O)[C@@H](C)O` [salmon calcitonin], the “AUC values compared with 50 MRC units i.m.” value in data set [1] (110 MRC units intra-nasally) and in data set [1] (220 MRC units intra-nasally) was “comparable” throughout. The F rel in data set [1] (both sexes, plasma, inhaled or intranasal, nasal vs intra-muscular, human, read-out: bio-availability (blood-plasma concentration) following nasal administration relative to levels achieved on intra-muscular injection) is around 50%. Besides, the “time serum levels remain above the detectability limit” value in data set [1] (i.m. application of 50 MRC units) was 6 h; in data set [1] (nasal application of 110 MRC units) it was 8 h. The “adverse side-effects following nasal administrations” value in data set [1] (nasal, up to the highest dosage of 220 MRC units) was “No adverse side-effects”.
On to `CC(C)(O)C(Cl)(Cl)Cl` [chlorbutanol], for which, in data set [2], the “time required to reduce the cell count to less than 0.1%” value is given as “more than 3 days”. Besides, in data set [3], the “inhibition of the ciliary beating frequency” value is given as “more than 50%”.
